± gives the expanded uncertainty stated by the source.
Experiments:
[1] = xn = mol fraction of the nth substance listed; details: 100.5 kPa, Liquid; for viscosity: Capillary tube (Ostwald / Ubbelohde) method
[2] = refractive index (Na D-line) (dimensionless); xn = mol fraction of the nth substance listed; details: 100.8 kPa, Liquid, Standard Abbe refractometry

CC(C)OC(C)C [diisopropyl ether] + CCO
Details	mass density, 288.15 K [kg/m3]	mass density, 298.15 K [kg/m3]	mass density, 308.15 K [kg/m3]	refractive index, 288.15 K	refractive index, 298.15 K	refractive index, 308.15 K	viscosity, 288.15 K [mPa·s]	viscosity, 298.15 K [mPa·s]	viscosity, 308.15 K [mPa·s]
[1], x1 = 0.05	788.65 ± 0.23	779.96 ± 0.24	771.13 ± 0.25	–	–	–	1.176 ± 0.009	0.975 ± 0.008	0.814 ± 0.008
[1], x1 = 0.1	783.6 ± 0.24	774.78 ± 0.24	765.84 ± 0.25	–	–	–	1.046 ± 0.008	0.875 ± 0.008	0.736 ± 0.007
[1], x1 = 0.15	779.02 ± 0.24	770.05 ± 0.25	760.98 ± 0.25	–	–	–	0.946 ± 0.008	0.793 ± 0.008	0.67 ± 0.007
[1], x1 = 0.2	774.89 ± 0.24	765.79 ± 0.25	756.58 ± 0.26	–	–	–	0.85 ± 0.008	0.719 ± 0.007	0.612 ± 0.007
[1], x1 = 0.25	770.69 ± 0.25	761.45 ± 0.26	752.16 ± 0.26	–	–	–	0.771 ± 0.008	0.656 ± 0.007	0.562 ± 0.007
[1], x1 = 0.3	766.92 ± 0.25	757.63 ± 0.26	748.12 ± 0.27	–	–	–	0.705 ± 0.007	0.603 ± 0.007	0.52 ± 0.007
[1], x1 = 0.35	763.36 ± 0.26	753.93 ± 0.26	744.32 ± 0.27	–	–	–	0.648 ± 0.007	0.558 ± 0.007	0.484 ± 0.007
[1], x1 = 0.4	760.02 ± 0.26	750.47 ± 0.27	740.76 ± 0.27	–	–	–	0.599 ± 0.007	0.519 ± 0.007	0.453 ± 0.007
[1], x1 = 0.45	756.93 ± 0.26	747.28 ± 0.27	737.5 ± 0.28	–	–	–	0.558 ± 0.007	0.486 ± 0.007	0.426 ± 0.007
[1], x1 = 0.5	753.87 ± 0.27	744.13 ± 0.27	734.3 ± 0.28	–	–	–	0.523 ± 0.007	0.458 ± 0.007	0.403 ± 0.007
[1], x1 = 0.55	750.98 ± 0.27	741.18 ± 0.28	731.25 ± 0.28	–	–	–	0.493 ± 0.007	0.432 ± 0.007	0.383 ± 0.007
[1], x1 = 0.6	748.29 ± 0.27	738.39 ± 0.28	728.37 ± 0.29	–	–	–	0.468 ± 0.007	0.412 ± 0.007	0.365 ± 0.007
[1], x1 = 0.65	745.73 ± 0.27	735.73 ± 0.28	725.59 ± 0.29	–	–	–	0.444 ± 0.007	0.392 ± 0.007	0.35 ± 0.007
[1], x1 = 0.7	743.19 ± 0.28	733.1 ± 0.29	722.86 ± 0.29	–	–	–	0.423 ± 0.007	0.376 ± 0.007	0.336 ± 0.006
[1], x1 = 0.7499	740.73 ± 0.28	730.59 ± 0.29	720.23 ± 0.3	–	–	–	0.407 ± 0.007	0.362 ± 0.007	0.324 ± 0.006
[1], x1 = 0.8	738.4 ± 0.28	728.19 ± 0.29	717.79 ± 0.3	–	–	–	0.392 ± 0.007	0.35 ± 0.007	0.314 ± 0.006
[1], x1 = 0.85	735.94 ± 0.29	725.76 ± 0.29	715.31 ± 0.3	–	–	–	0.378 ± 0.007	0.339 ± 0.006	0.305 ± 0.006
[1], x1 = 0.9	733.6 ± 0.29	723.36 ± 0.3	712.89 ± 0.3	–	–	–	0.367 ± 0.007	0.329 ± 0.006	0.297 ± 0.006
[1], x1 = 0.95	731.15 ± 0.29	720.98 ± 0.3	710.53 ± 0.31	–	–	–	0.357 ± 0.007	0.32 ± 0.006	0.289 ± 0.006
[1], x1 = 1	729.09 ± 0.3	718.7 ± 0.3	708.12 ± 0.31	–	–	–	0.348 ± 0.007	0.313 ± 0.006	0.283 ± 0.006
[2], x1 = 0.05	–	–	–	1.36501 ± 0.00031	1.36077 ± 0.00031	1.35646 ± 0.00031	–	–	–
[2], x1 = 0.1	–	–	–	1.36653 ± 0.00031	1.3621 ± 0.00031	1.35763 ± 0.00031	–	–	–
[2], x1 = 0.15	–	–	–	1.36768 ± 0.00031	1.3631 ± 0.00031	1.3585 ± 0.00031	–	–	–
[2], x1 = 0.2	–	–	–	1.3686 ± 0.00031	1.36392 ± 0.00031	1.35923 ± 0.00031	–	–	–
[2], x1 = 0.25	–	–	–	1.36935 ± 0.00031	1.36456 ± 0.00031	1.35977 ± 0.00031	–	–	–
[2], x1 = 0.3	–	–	–	1.36998 ± 0.00031	1.3651 ± 0.00031	1.36021 ± 0.00031	–	–	–
[2], x1 = 0.35	–	–	–	1.37047 ± 0.00031	1.3655 ± 0.00031	1.36052 ± 0.00031	–	–	–
[2], x1 = 0.4	–	–	–	1.37086 ± 0.00031	1.36582 ± 0.00031	1.36077 ± 0.00031	–	–	–
[2], x1 = 0.45	–	–	–	1.37117 ± 0.00031	1.36608 ± 0.00031	1.36093 ± 0.00031	–	–	–
[2], x1 = 0.5	–	–	–	1.3714 ± 0.00031	1.3663 ± 0.00031	1.36103 ± 0.00031	–	–	–
[2], x1 = 0.55	–	–	–	1.37159 ± 0.00031	1.36642 ± 0.00031	1.36107 ± 0.00031	–	–	–
[2], x1 = 0.6	–	–	–	1.37174 ± 0.00031	1.36648 ± 0.00031	1.36109 ± 0.00031	–	–	–
[2], x1 = 0.65	–	–	–	1.37183 ± 0.00031	1.36649 ± 0.00031	1.36108 ± 0.00031	–	–	–
[2], x1 = 0.7	–	–	–	1.37187 ± 0.00031	1.36646 ± 0.00031	1.36098 ± 0.00031	–	–	–
[2], x1 = 0.7499	–	–	–	1.37187 ± 0.00031	1.36638 ± 0.00031	1.36085 ± 0.00031	–	–	–
[2], x1 = 0.8	–	–	–	1.37181 ± 0.00031	1.36627 ± 0.00031	1.36068 ± 0.00031	–	–	–
[2], x1 = 0.85	–	–	–	1.37167 ± 0.00031	1.36611 ± 0.00031	1.36044 ± 0.00031	–	–	–
[2], x1 = 0.9	–	–	–	1.3715 ± 0.00031	1.36588 ± 0.00031	1.36019 ± 0.00031	–	–	–
[2], x1 = 0.95	–	–	–	1.3712 ± 0.00032	1.36558 ± 0.00032	1.35986 ± 0.00032	–	–	–
[2], x1 = 1	–	–	–	1.37093 ± 0.00032	1.36524 ± 0.00032	1.35944 ± 0.00032	–	–	–
